Experimental data reported in US5792920A, “Plants with altered ability to synthesize starch and process for obtaining them” (Imperial Chemical Industries PLC, priority 1988, dated 1998).
Read-outs that look alike come from different tables or passages of the source.

Columns and labels:
[1] = biological target: T1, ADP-glucose pyrophosphorylase enzyme from rice endosperm (Oryza sativa subsp. japonica, UniProt P15280+Q7G065); details: 5 mM 3-phosphoglycerate; cited from earlier work
T1 construct: host or cells: rice endosperm
T1 sequence (P15280 1-479 isoform P15280-2): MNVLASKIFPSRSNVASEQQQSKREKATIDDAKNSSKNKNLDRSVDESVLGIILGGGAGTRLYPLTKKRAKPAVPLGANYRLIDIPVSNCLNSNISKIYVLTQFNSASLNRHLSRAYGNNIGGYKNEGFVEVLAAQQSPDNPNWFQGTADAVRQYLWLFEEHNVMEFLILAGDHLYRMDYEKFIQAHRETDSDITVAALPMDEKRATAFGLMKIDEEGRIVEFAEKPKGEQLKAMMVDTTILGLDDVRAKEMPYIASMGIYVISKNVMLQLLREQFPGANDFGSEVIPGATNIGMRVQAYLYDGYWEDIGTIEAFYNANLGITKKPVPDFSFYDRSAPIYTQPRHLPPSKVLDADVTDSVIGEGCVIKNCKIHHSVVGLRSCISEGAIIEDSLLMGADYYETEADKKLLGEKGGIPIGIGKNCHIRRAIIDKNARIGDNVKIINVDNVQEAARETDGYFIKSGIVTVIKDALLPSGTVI
T1 sequence (Q7G065 1-518): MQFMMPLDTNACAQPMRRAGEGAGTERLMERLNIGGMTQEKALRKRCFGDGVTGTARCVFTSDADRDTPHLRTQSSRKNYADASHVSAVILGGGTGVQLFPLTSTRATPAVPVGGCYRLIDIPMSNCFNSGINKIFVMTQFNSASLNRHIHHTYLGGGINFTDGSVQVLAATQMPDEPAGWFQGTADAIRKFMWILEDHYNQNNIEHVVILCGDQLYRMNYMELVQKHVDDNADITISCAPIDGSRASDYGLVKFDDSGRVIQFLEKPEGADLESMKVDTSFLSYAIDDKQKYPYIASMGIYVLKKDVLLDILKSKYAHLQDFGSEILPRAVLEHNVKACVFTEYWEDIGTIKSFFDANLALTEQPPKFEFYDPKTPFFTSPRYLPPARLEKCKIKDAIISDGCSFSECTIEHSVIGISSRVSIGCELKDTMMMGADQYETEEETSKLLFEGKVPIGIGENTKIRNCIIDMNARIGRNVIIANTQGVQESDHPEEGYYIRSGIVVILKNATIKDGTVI

[2] = biological target: T2, wheat leaf ADP-glucose pyrophosphorylase (Triticum aestivum, UniProt P12298); experiment: biochemical; details: read-out: fold activation of enzyme
T2 sequence (P12298 1-301): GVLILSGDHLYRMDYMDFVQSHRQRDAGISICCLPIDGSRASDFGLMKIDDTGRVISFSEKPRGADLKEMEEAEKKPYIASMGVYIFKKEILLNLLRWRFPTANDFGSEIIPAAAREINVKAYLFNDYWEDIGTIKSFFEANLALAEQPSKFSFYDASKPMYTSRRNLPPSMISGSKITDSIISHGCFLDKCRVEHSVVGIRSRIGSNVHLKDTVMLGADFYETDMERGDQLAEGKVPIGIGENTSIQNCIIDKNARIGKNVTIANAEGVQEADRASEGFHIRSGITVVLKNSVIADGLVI
T2 sequence (P30523 2-473 partner): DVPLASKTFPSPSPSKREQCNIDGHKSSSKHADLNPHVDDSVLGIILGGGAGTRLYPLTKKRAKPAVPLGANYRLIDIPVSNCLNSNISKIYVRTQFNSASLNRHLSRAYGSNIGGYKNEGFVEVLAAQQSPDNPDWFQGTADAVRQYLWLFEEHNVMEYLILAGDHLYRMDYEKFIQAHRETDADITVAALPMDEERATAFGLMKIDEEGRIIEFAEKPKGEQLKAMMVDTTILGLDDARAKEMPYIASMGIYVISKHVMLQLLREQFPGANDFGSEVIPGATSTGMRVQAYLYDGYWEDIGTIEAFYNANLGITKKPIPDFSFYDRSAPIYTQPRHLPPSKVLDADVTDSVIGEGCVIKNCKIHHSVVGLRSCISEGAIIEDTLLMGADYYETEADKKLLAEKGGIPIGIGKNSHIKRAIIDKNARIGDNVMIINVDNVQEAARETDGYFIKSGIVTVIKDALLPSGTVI

[3] = biological target: T3, wheat endosperm ADP-glucose pyrophosphorylase (Triticum aestivum, UniProt P12299+P30523)
T3 sequence (P12299 63-522): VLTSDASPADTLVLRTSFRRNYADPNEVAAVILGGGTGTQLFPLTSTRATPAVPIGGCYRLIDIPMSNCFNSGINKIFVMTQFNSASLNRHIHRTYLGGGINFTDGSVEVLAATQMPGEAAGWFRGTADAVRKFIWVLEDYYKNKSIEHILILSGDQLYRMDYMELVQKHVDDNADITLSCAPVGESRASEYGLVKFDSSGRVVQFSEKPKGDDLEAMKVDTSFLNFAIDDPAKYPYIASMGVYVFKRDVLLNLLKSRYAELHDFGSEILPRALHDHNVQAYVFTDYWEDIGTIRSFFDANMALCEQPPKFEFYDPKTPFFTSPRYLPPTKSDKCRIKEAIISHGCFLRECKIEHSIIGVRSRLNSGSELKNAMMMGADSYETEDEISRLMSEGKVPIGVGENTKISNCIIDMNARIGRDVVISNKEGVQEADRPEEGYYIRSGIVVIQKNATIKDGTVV
T3 sequence (P30523 1-473): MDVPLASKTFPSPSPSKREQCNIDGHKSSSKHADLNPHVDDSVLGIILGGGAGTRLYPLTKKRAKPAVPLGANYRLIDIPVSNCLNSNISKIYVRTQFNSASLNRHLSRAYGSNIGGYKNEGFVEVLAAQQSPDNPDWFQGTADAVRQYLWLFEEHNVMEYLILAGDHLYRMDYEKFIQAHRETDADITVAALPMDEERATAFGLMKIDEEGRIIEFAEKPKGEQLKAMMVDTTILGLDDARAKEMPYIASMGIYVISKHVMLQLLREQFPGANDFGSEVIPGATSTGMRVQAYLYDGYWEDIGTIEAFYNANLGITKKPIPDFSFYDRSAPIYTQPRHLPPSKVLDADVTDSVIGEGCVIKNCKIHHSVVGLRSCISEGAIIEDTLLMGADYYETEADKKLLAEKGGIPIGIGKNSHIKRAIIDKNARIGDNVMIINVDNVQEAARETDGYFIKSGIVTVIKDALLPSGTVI

[4] = test system: plant leaf ADP-glucose pyrophosphorylase; details: cited from earlier work; for activation in vitro: all plant leaf enzymes studied
[5] = biological target: T3, wheat endosperm ADP-glucose pyrophosphorylase; experiment: Screen of 3-phosphoglycerate analogues for antagonism of phosphate inhibition; type: biochemical; parameters: Partially-purified wheat endosperm ADP-glucose pyrophosphorylase; from tissue; host or cells: wheat endosperm; details: compound 3 mM, 1 mM phosphate
Method: There is clear evidence that the wheat endosperm enzyme has allosteric properties by virtue of being inhibited by phosphate and the inhibition being partially relieved by 3-phosphoglycerate. […] A careful analysis of various chemical that were chemically very closely related to 3-phosphoglycerate was carried out.
Seventeen compounds were tested at 3 mM concentration for their ability to antagonise the inhibition of the enzyme by 1 mM phosphate. The first series of compounds tested were phosphonate analogues of 3-phosphoglycerate. […] The second series tested were derivatives bearing structural similarity to 3-phosphoglycerate. Of these, only one compound gave weak alleviation of phosphate inhibition.

[6] = biological target: T2, wheat leaf ADP-glucose pyrophosphorylase; details: read-out: concentration required to achieve half-maximal inhibition of enzyme activity

In the case of `O=C(O)C(O)COP(=O)(O)O` (centres unmarked) [3-phosphoglycerate], the “fold activation in vitro” value [1] is listed as 1,2 fold, the fold induction at 100 µM [2] is listed as 14.5 and the fold induction at 1000 µM [2] is listed as 10.
For `O=C(CO)[C@@H](O)[C@H](O)[C@H](O)COP(=O)(O)O` [Fructose-6-phosphate, fructose-6-phosphate], the “alleviation of phosphate inhibition” value ([3]; wheat endosperm enzyme) is listed as “weakly alleviates phosphate inhibition” and the activation in vitro [4] is listed as “to a lesser extent”.
For `O=S(=O)(O)O` [Sulphate], the “antagonism of inhibition of the enzyme by phosphate” value [5] was “antagonised phosphate inhibition”.
For `O=C(COP(=O)(O)O)[C@@H](O)[C@H](O)[C@H](O)COP(=O)(O)O` [fructose-1,6-bisphosphate], the “activation of enzyme by fructose-1,6-bisphosphate” value ([3]; wheat endosperm enzyme) is listed as “lack of detectable activation” and the activation in vitro [4] is listed as “to a lesser extent”.
For `O=P(O)(O)O` [orthophosphate], the IC50 ([3]; read-out: I0.5 value for orthophosphate, in the presence of 1 mM 3-phosphoglycerate) is given as 1500 µM, the IC50 ([3]; read-out: concentration required to achieve half-maximal inhibition of enzyme activity, wheat endosperm enzyme) is given as 700 µM and the IC50 ([4]; enzymes from plant leaves, in vitro, read-out: orthophosphate concentration for half-maximal inhibition of enzyme activity) is given as less than 100 µM. For the same compound, the IC50 [6] was 56 µM.
For `C=C(OP(=O)(O)O)C(=O)O` [phosphoenol pyruvate], the activation in vitro [4] is given as “to a lesser extent”.
With `O=C(O)CC(CP(=O)(O)O)C(=O)O` (centres unmarked) [phosphonomethyl-butanedioic acid] the “antagonism of inhibition of the enzyme by phosphate” value [5] was “weak antagonism of phosphate inhibition”.
